Source: patent US20070128217A1 (priority 2003, published 2007)

Columns and labels:
[1] = tested on: recombinant human anti-SARS-CoV antibody 03-018; assay type: binding; design: Binding of antibody 03-018 to linear peptides of the N protein of SARS-CoV Urbani / Binding of antibody 03-018 to looped/cyclic peptides of the N protein of SARS-CoV Urbani: unit not given here
[2] = tested on: rabbit serum obtained by immunizing a rabbit with the SARS-CoV strain Frankfurt 1; assay type: binding; design: Binding of a rabbit serum to linear peptides / Binding of a rabbit serum to looped peptides / Rabbit serum linear peptides / Rabbit serum looped peptides / Binding of a rabbit serum to linear peptides of protein N of SARS-CoV Urbani (Rabbit serum linear peptides) / Binding of a rabbit serum to looped/cyclic peptides of protein N of SARS-CoV Urbani (Rabbit serum looped peptides): unit not given here
[3] = tested on: control sera (pooled serum of ten healthy LUMC hospital workers; commercial negative donor pooled serum from the Dutch bloodbank); assay type: binding, human; design: Binding of Control serum LUMC to linear peptides / Binding of Control serum Blood-bank to linear peptides / Binding of Control serum LUMC to looped peptides / Binding of Control Serum Blood-Bank to Looped peptides / Binding of Control serum LUMC to linear peptides of the protein M of SARS-CoV Urbani / Binding of Control serum Blood-bank to linear peptides of the protein M of SARS-CoV Urbani / Binding of Control serum LUMC to looped peptides of the protein M of SARS-CoV Urbani / Binding of Control Serum Blood-Bank to Looped peptides of the protein M of SARS-CoV Urbani: unit not given here
[4] = tested on: antibodies in sera from SARS patients (sera 1a, 1b, 2, 6, 37, 62, London, SARS-yellow, SARS-green); assay type: binding, human; design: Binding of serum 6 to linear peptides of protein X1 of SARS-CoV Urbani / Binding of serum 37 to linear peptides of protein X1 of SARS-CoV Urbani / Binding of serum 6 to looped/cyclic peptide (PEPSCAN-ELISA) / Binding of serum 37 to looped/cyclic peptide (PEPSCAN-ELISA) / Binding of serum 37 to looped/cyclic peptides of protein X1 of SARS-CoV Urbani / Binding of serum 6 to linear peptides of protein X2 / Binding of serum 37 to linear peptides of protein X2 / Binding of serum 37 to looped/cyclic peptides of protein X2 of SARS-CoV Urbani / Binding of serum 6 to linear peptides of protein M of SARS-CoV Urbani / Binding of serum 37 to linear peptides of protein M of SARS-CoV Urbani / Binding of serum 6 to looped/cyclic peptides of protein M of SARS-CoV Urbani / Binding of serum 37 to looped/cyclic peptides of protein M of SARS-CoV Urbani / Binding of serum 6 to linear peptides of protein X3 of SARS-CoV Urbani / Binding of serum 37 to linear peptides of protein X3 of SARS-CoV Urbani / Binding of serum 37 to looped/cyclic peptides of protein X3 of SARS-CoV Urbani / Binding of serum 6 to linear peptides of protein X4 of SARS-CoV Urbani / Binding of serum 37 to linear peptides of protein X4 of SARS-CoV Urbani / Binding of serum 37 to looped/cyclic peptides of protein X4 of SARS-CoV Urbani / Binding of serum 6 to linear peptides of protein X5 of SARS-CoV Urbani / Binding of serum 37 to linear peptides of protein X5 of SARS-CoV Urbani / Binding of serum 37 to looped/cyclic peptides of protein X5 of SARS-CoV Urbani / Binding of serum 6 to linear peptides of protein N of SARS-CoV Urbani / Binding of serum 37 to linear peptides of protein N of SARS-CoV Urbani / Binding of serum 6 to linear peptide (PEPSCAN-ELISA) / Binding of serum 1a to looped/cyclic peptides of protein N of SARS-CoV Urbani / Binding of serum 1b to looped/cyclic peptides of protein N of SARS-CoV Urbani / Binding of serum 2 to looped/cyclic peptides of protein N of SARS-CoV Urbani / Binding of serum 6 to looped/cyclic peptides of protein N of SARS-CoV Urbani / Binding of serum 37 to looped/cyclic peptides of protein N of SARS-CoV Urbani / Binding of serum 62 to looped/cyclic peptides of protein N of SARS-CoV Urbani / Binding of serum London to looped/cyclic peptides of protein N of SARS-CoV Urbani / Binding of serum SARS-green to looped/cyclic peptides of protein N of SARS-CoV Urbani: unit not given here

Row | Sequence | Binding of antibody 03-018 to linear peptides of the N protein of SARS-CoV Urbani [1] | Binding of antibody 03-018 to looped/cyclic peptides of the N protein of SARS-CoV Urbani [1] | Binding of a rabbit serum to linear peptides of protein N of SARS-CoV Urbani (Rabbit serum linear peptides) [2] | Binding of a rabbit serum to looped/cyclic peptides of protein N of SARS-CoV Urbani (Rabbit serum looped peptides) [2] | Binding of Control Serum Blood-Bank to Looped peptides [3] | Binding of Control serum Blood-bank to linear peptides [3] | Binding of Control serum LUMC to linear peptides [3] | Binding of Control serum LUMC to looped peptides [3] | Binding of serum 1a to looped/cyclic peptides of protein N of SARS-CoV Urbani [4] | Binding of serum 1b to looped/cyclic peptides of protein N of SARS-CoV Urbani [4] | Binding of serum 2 to looped/cyclic peptides of protein N of SARS-CoV Urbani [4] | Binding of serum 6 to looped/cyclic peptides of protein N of SARS-CoV Urbani [4] | Binding of serum 37 to looped/cyclic peptides of protein N of SARS-CoV Urbani [4] | Binding of serum 62 to looped/cyclic peptides of protein N of SARS-CoV Urbani [4] | Binding of serum London to looped/cyclic peptides of protein N of SARS-CoV Urbani [4] | Binding of serum SARS-green to looped/cyclic peptides of protein N of SARS-CoV Urbani [4] | Binding of serum SARS-yellow to looped/cyclic peptides of protein N of SARS-CoV Urbani [4] | also measured
1 | DRLNQLESKVSGKGQ | 0.1 | 0.3 | 0.3 | 0.4 | 0.6 | 0.9 | 0.7 | 0.6 | 0.4 | 0.3 | 0.6 | 0.4 | 0.6 | 0.4 | 0.4 | 0.4 | 0.8 | Binding of serum 1a to linear peptide (PEPSCAN-ELISA) [4]: 0.3; Binding of serum 1b to linear peptide (PEPSCAN-ELISA) [4]: 0.1; Binding of serum 2 to linear peptide (PEPSCAN-ELISA) [4]: 0.3; Binding of serum 6 to linear peptide (PEPSCAN-ELISA) [4]: 0.2; Binding of serum 37 to linear peptide (PEPSCAN-ELISA) [4]: 0.8; Binding of serum 62 to linear peptide (PEPSCAN-ELISA) [4]: 0.7; Binding of serum London to linear peptide (PEPSCAN-ELISA) [4]: 0.5; Binding of serum SARS-green to linear peptide (PEPSCAN-ELISA) [4]: 0.5; Binding of serum SARS-yellow to linear peptide (PEPSCAN-ELISA) [4]: 0.7
2 | DSTDNNQNGGRNGAR | 0.2 | 0.3 | 0.1 | 0.5 | 0.6 | 0.8 | 0.7 | 0.7 | 0.4 | 0.3 | 0.5 | 0.3 | 0.7 | 0.4 | 0.5 | 0.8 | 0.5 | Binding of serum 1a to linear peptides of protein N of SARS-CoV Urbani [4]: 0.2; Binding of serum 1b to linear peptides of protein N of SARS-CoV Urbani [4]: 0.1; Binding of serum 2 to linear peptides of protein N of SARS-CoV Urbani [4]: 0.2; Binding of serum 6 to linear peptides of protein N of SARS-CoV Urbani [4]: 0.2; Binding of serum 37 to linear peptides of protein N of SARS-CoV Urbani [4]: 1.0; Binding of serum 62 to linear peptides of protein N of SARS-CoV Urbani [4]: 0.8; Binding of serum London to linear peptides of protein N of SARS-CoV Urbani [4]: 0.5; Binding of serum SARS-green to linear peptides of protein N of SARS-CoV Urbani [4]: 0.5; Binding of serum SARS-yellow to linear peptides of protein N of SARS-CoV Urbani [4]: 0.5
